Test results: patent publication US20220193072A1, “METHODS OF TREATING BREAST CANCER WITH TETRAHYDRONAPHTHALENE DERIVATIVES AS ESTROGEN RECEPTOR DEGRADER” (Arvinas Operations, Inc., priority 2020, published 2022)
Read-outs that look alike come from different tables or passages of the source.

How the values were obtained:
[1] = system: estrogen receptor; experiment: In vitro ER degradation in ER-positive breast cancer cell lines (DC50); conditions: wild-type and variant ERα expressing cell lines
[2] = Phase I dose escalation safety; type: in vivo, human; conditions: 30 mg/day cohort, n=3
Text: (§1) A Phase I Clinical Trial with Compound (I-c) was undertaken. A traditional 3+3 dose escalation design was implemented. […] Dose increases were dependent on toxicities.
(§2) The key entry criteria for this trial were: ER+/HER2− advanced breast cancer; at least two prior endocrine therapies in any setting, and a CDK4/6 inhibitor; and up to three prior cytotoxic chemotherapy regimens.

[3] = system: T47D ESR1 Y537S cells; experiment: Live-cell imaging growth studies and EC50 for growth inhibition, T47D ESR1 Y537S; type: cell-based; conditions: Homo sapiens, read-out: Approximate Half-maximal Effective Concentration (EC50) for growth inhibition
Experimental: MCF7, T47D, T47D ESR1 Y537S or T47D ESR1 D538G cells were seeded at 2×10^5 density per well in 6-well tissue culture-treated plates in DMEM/F12/10% FBS (2 mL total volume). […] The plate was then placed in the Incucyte® S3 Live-Cell Analysis System and images were acquired every 4 hours for a total of 5 days (120 hours). Data were analyzed using the Incucyte® Software v2020C which quantified cell surface area coverage as confluence values. Relative growth was calculated for all timepoints for all growth conditions relative to the confluence value observed for the control at 120 hours. Graphing and statistical analyses were performed using Graphpad Prism (GraphPad Software).

[4] = 28-day oral toxicology study in dogs; type: in vivo; conditions: oral once daily 28 days
[5] = Phase I clinical trial pharmacokinetics; conditions: human, in vivo, po, 30 mg, 30 mg oral once daily
Text: as §1, §2
The initial pharmacokinetic results are shown below in Table 2, as well as in FIG. 3 and FIG. 4.

[6] = system: tamoxifen-resistant MCF7 xenografts; experiment: Tamoxifen-resistant MCF7 orthotopic xenograft tumor growth inhibition; type: in vivo, Nu/Nu mice
Experimental: Species: Ovariectomized Nu/Nu female mice. Animal handling: Axial mammary fat pad implantation of tamoxifen-resistant tumor fragment (from E45 passage. SC per mouse. Tamoxifen pellet (5 mg, 60-day release) was implanted under the same anesthesia as tumor fragment (pellet—dorsal; tumor—ventral).
Dosing: Oral (gavage), once a day for 28 days (QD×28)
Sampling: Tumors were measured twice weekly. Terminal sacrifice was ˜18 hr after last dose; tumors were harvested, divided, and flash frozen. ERα levels were determined by immunoblotting (see Appendix 1 for details).

[7] = system: ESR1 variants Y537S and D538G; experiment: In vitro ERα degradation in ESR1 variant cell lines; type: cell-based, human; conditions: FIG. 15
[8] = system: ESR1 (Y537S) PDX; experiment: ESR1 (Y537S) PDX model tumor growth inhibition; type: in vivo; conditions: for tumor growth inhibition (TGI): ESR1 (Y537S) PDX, 28 days
[9] = system: ER-dependent cell lines; experiment: Cell proliferation of ER-dependent cell lines; type: cell-based
[10] = system: MCF7 xenograft; experiment: MCF7 orthotopic xenograft, combination with PI3K inhibitor alpelisib; type: in vivo, NOD/SCID mice
Experimental: NOD/SCID female mice (Charles River, 6-7 weeks old upon arrival) were implanted with 17b-estradiol 0.72 mg 90-day pellets. The next day, each mouse was implanted with 5×10^6 MCF7 cells/[…] in the axial mammary fat pad. Compound administration was initiated once the tumors reached 175-200 mm^3. Diet was supplemented with peanut butter to help maintain body weights. Dosing holidays occurred on days 6, 7, 8 and 9 due to body weight loss in some animals in study arms 3 and 4. […] (FIG. 31 and Table 15).
Dosing holidays occurred on days 6, 7, 8 and 9. Error bars represent standard deviation.
The ratio of Tween 80 to PEG-400 is 0.02 g Tween 80 to 1 ml PEG-400. PEG-400 is added to a pre-aliquoted volume of Tween 80. • For alpelisib: 1% carboxymethylcellulose (CMC), 0.5% Tween 80/DI water (‘CMC/Tween’) Sampling: tumors were measured twice weekly. Terminal sacrifice was ˜18 hr after last dose. Tumor volume calculation: Tumor Volume=(width×width×length)/2, where all measurements are in mm and the tumor volume is in mm^3. Tumor Growth Inhibition (TGI) calculation: TGI (%)

[11] = Compound (I-c) 30 mg/kg oral QD x 28
[12] = Compound (I-c) 30 mg/kg oral QD x 19

O=C1CC[C@H](N2Cc3cc(N4CCN(CC5CCN(c6ccc([C@@H]7c8ccc(O)cc8CC[C@@H]7c7ccccc7)cc6)CC5)CC4)ccc3C2=O)C(=O)N1 [Compound (I-c), (3S)-3-[5-[4-[[1-[4-[(1R,2S)-6-hydroxy-2-phenyl-tetralin-1-yl]phenyl]-4-piperidyl]methyl]piperazin-1-yl]-1-oxo-isoindolin-2-yl]piperidine-2,6-dione]
ERα degradation potency [1]: single-digit nanomolar
dose limiting toxicity [2]: no dose limiting toxicity
treatment related adverse events [2]: no treatment related adverse events
EC50 [3]: 50 nM
clinical signs of toxicity ([4]; doses up to 90 mg/kg/day): no clinical signs of toxicity
effects on overall animal health or well-being ([4]; up to 90 mg/kg/day): no effects on the overall animal health or well-being
AUC ([5]; Phase I, read-out: Mean Day 1 AUCTAU): 1690 ng·h/mL
Cmax ([5]; Phase I, read-out: Mean Day 1 Cmax): 109 ng/mL
Cmax ([5]; Phase I, read-out: Mean Day 15 Cmax): 224 ng/mL
AUC ([5]; calculated using imputed 24 hour values, read-out: Mean Day 15 AUCTAU): 4100 ng·h/mL
Day 28 Tumor volume (mean ± SD) [6, 11]: 361 ± 181 mm^3
TGI (% vehicle) [6, 11]: 65 % vehicle
tumor growth inhibition (TGI) ([6]; tamoxifen-resistant MCF7, 30 mg/kg/day oral, 28 days): 65%
degradation of clinically-relevant ESR1 variants Y537S and D538G [7]: degrades
tumor growth inhibition (TGI) ([8]; 10 mg/kg oral once daily): 99%
tumor growth inhibition (TGI) ([8]; 30 mg/kg oral once daily): 106%
tumor growth ([8]; ESR1 Y537S hormone-independent PDX, 10 mg/kg): completely inhibited growth
cell proliferation of ER-dependent cell lines [9]: inhibits
Day 19 Tumor Volume (mean ± SD) [10, 12]: 207 ± 62 mm^3
TGI (% vehicle) [10, 12]: 95 % vehicle
tumor growth inhibition (TGI) ([10]; single agent 30 mg/kg oral once daily, 19 days, dosing holidays days 6-9): 95%
